Measurements published in patent US20100119599A1 (ARCHER PHARMACEUTICALS, INC., priority 2006, published 2010).
Like-named read-outs stand apart in the source and are kept apart here.

How the values were obtained:
Aβ1-40 = test: Measurement of Aβ1-40 in culture medium of 7W WT APP751 CHO cells by ELISA; assay type: cell-based, Chinese hamster; settings: for activity at 5 µM: Cricetulus griseus, 5 μM test compound, CHO cells stably transfected with human APP751, culture medium, ELISA, control DMSO; for Aβ1-40 (% of control): CHO cells that overexpress APP751, zero = below the detection limit of the assay;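 as to all read-outs here: 5 µM test compound but RI-coded compounds at 10 µM for 24 hours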
Aβ1-42 = test: Measurement of Aβ1-42 in culture medium of 7W WT APP751 CHO cells by ELISA; assay type: cell-based, Chinese hamster; settings: for activity at 5 µM: Cricetulus griseus, 5 μM test compound, CHO cells stably transfected with human APP751, culture medium, ELISA, control DMSO; for Aβ1-42 (% of control): CHO cells that overexpress APP751, zero = below the detection limit of the assay;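 as to Aβ1-42 (% of control): 5 µM test compound but RI-coded compounds at 10 µM for 24 hours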
[1] = Table 1, 0 = no detectable amount
[2] = Table 1, 0 = no detectable amount, read-out: Aβ1-42 (% of control)

Compound | activity at 5 µM (Aβ1-40; [1]) [%] | activity at 5 µM (Aβ1-42; [2]) [%] | further results
COC(=O)C1=C(C)NC2=C(C(=O)CC(c3ccc(OC)cc3)C2)C1c1cccc(OC)c1OC (centres unmarked) [ST016999, methyl 4-(2,3-dimethoxyphenyl)-7-(4-methoxyphenyl)-2-methyl-5-oxo-1,4,6,7,8-pentahydroquinoline-3-carboxylate] | 67.3 | 82.8 | 
CCOc1cc(C2C(C(=O)OCc3ccccc3)=C(C)NC3=C2C(=O)CCC3)ccc1O (centres unmarked) [ST013242, phenylmethyl 4-(3-ethoxy-4-hydroxyphenyl)-2-methyl-5-oxo-1,4,6,7,8-pentahydroquinoline-3-carboxylate] | 81.2 | 64.4 | 
CCOC(=O)C1=C(C)NC2=C(C(=O)CCC2)C1c1ccc(Cl)cc1 (centres unmarked) [ST024440, ethyl 4-(4-chlorophenyl)-2-methyl-5-oxo-1,4,6,7,8-pentahydroquinoline-3-carboxylate] | 63.1 | 97.7 | 
COC(=O)C1=C(C)NC2=C(C(=O)CC(c3cccs3)C2)C1c1cccc(C(F)(F)F)c1 (centres unmarked) [ST052393, methyl 2-methyl-5-oxo-7-(2-thienyl)-4-[3-(trifluoromethyl)phenyl]-1,4,6,7,8-pentahydroquinoline-3-carboxylate] | 34.2 | 48.2 | 
COc1ccccc1NC(=O)C1=C(C)NC2=C(C(=O)CCC2)C1c1ccc(Cl)cc1 (centres unmarked) [ST052292, [4-(4-chlorophenyl)-2-methyl-5-oxo(3-1,4,6,7,8-pentahydroquinolyl)]-N-(2-methoxyphenyl)carboxamide] | 85.8 | 68.2 | 
CCCOC(=O)C1=C(C)NC2=C(C(=O)CCC2)C1c1cc(Br)ccc1OC (centres unmarked) [ST052364, propyl 4-(5-bromo-2-methoxyphenyl)-2-methyl-5-oxo-1,4,6,7,8-pentahydroquinoline-3-carboxylate] | 27 | 13.5 | 
CC1=C(C(=O)OCCOc2ccccc2)C(c2ccc(Cl)cc2Cl)C2=C(CC(C)(C)CC2=O)N1 (centres unmarked) [ST015067, 2-phenoxyethyl 4-(2,4-dichlorophenyl)-2,7,7-trimethyl-5-oxo-1,4,6,7,8-pentahydroquinoline-3-carboxylate] | 4.89 | 43.9 | 
N#CC(C#N)=CC=C1C=CN(Cc2ccccc2)C=C1 [ST208051, {2-[1-benzyl-4-hydropyridylidene]ethylidene}methane-11-dicarbonitrile] |  |  | activity at 5 µM (Aβ1-40; Table 3): 57.1%; activity at 5 µM (Aβ1-42; Table 3, read-out: Aβ-42 (% of control)): 75%
COc1ccccc1C1C(C(=O)OCCOc2ccccc2)=C(C)NC2=C1C(=O)CC(C)(C)C2 (centres unmarked) [ST015108, 2-phenoxyethyl 4-(2-methoxyphenyl)-2,7,7-trimethyl-5-oxo-1,4,6,7,8-pentahydroquinoline-3-carboxylate] | 33 | 92.1 | 
COc1ccc(C2C(C(=O)OC3CCCC3)=C(C)NC3=C2C(=O)CC(C)(C)C3)c(OC)c1OC (centres unmarked) [ST013328, cyclopentyl 2,7,7-trimethyl-5-oxo-4-(2,3,4-trimethoxyphenyl)-1,4,6,7,8-pentahydroquinoline-3-carboxylate] | 43.1 | 93.4 | 
COC(=O)C1=C(C)NC2=C(C(=O)CC(c3ccc(Cl)cc3)C2)C1c1ccc(C)cc1 (centres unmarked) [ST015214, methyl 7-(4-chlorophenyl)-2-methyl-4-(4-methylphenyl)-5-oxo-1,4,6,7,8-pentahydroquinoline-3-carboxylate] | 60.7 | 66.7 | 
CCCOC(=O)C1=C(C)NC2=C(C(=O)CC(c3ccc(Cl)cc3)C2)C1c1ccc(Cl)c(Cl)c1 (centres unmarked) [ST017183, propyl 4-(3,4-dichlorophenyl)-7-(4-chlorophenyl)-2-methyl-5-oxo-1,4,6,7,8-pentahydroquinoline-3-carboxylate] | 50.1 | 67.9 | 
CC1=C(C(=O)OCCc2ccccc2)C(c2ccc(C(F)(F)F)cc2)C2=C(CCCC2=O)N1 (centres unmarked) [ST052320, 2-phenylethyl 2-methyl-5-oxo-4-[4-(trifluoromethyl)phenyl]-1,4,6,7,8-pentahydroquinoline-3-carboxylate] | 9.44 | 0 | 
CCOc1cc(C2C(C(=O)OCCSCC)=C(C)NC3=C2C(=O)CC(c2ccc(Cl)cc2)C3)ccc1O (centres unmarked) [ST017243, 2-ethylthioethyl 7-(4-chlorophenyl)-4-(3-ethoxy-4-hydroxyphenyl)-2-methyl-5-ox o-1,4,6,7,8-pentahydroquinoline-3-carboxylate] | 69.6 | 15.6 | 
COCCOC(=O)C1=C(C)NC2=C(C(=O)CC(c3ccc(OC)cc3)C2)C1c1cccc(OC)c1 (centres unmarked) [ST017097, 2-methoxyethyl 4-(3-methoxyphenyl)-7-(4-methoxyphenyl)-2-methyl-5-oxo-1,4,6,7,8-pentahydroquinoline-3-carboxylate] | 68.2 | 80.9 | 
COC(=O)C1=CN(C23CC4CC(CC(C4)C2)C3)C=C(C(=O)OC)C1c1cccc([N+](=O)[O-])c1 [ST045329, methyl 1-adamantanyl-5-(methoxycarbonyl)-4-(3-nitrophenyl)-1,4-dihydropyridine-3-carboxylate] |  |  | Aβ1-40 (% of control) (Aβ1-40): 82.6 % of control; Aβ1-42 (% of control) (Aβ1-42): 68.52 % of control

Compound | activity at 5 µM (Aβ1-40; [1]) [%] | activity at 5 µM (Aβ1-42; [2]) [%] | further results
COc1ccc(C2CC(=O)C3=C(C2)NC(C)=C(C(=O)OCc2ccccc2)C3c2cc(OC)c(OC)c(OC)c2)cc1 (centres unmarked) [ST017244, phenylmethyl 7-(4-methoxyphenyl)-2-methyl-5-oxo-4-(3,4,5-trimethoxyphenyl)-1,4,6,7,8-pentahydroquinoline-3-carboxylate] | 65.4 | 24.4 | 
CC1=C(C(=O)OCCc2ccccc2)C(c2ccc(C)cc2)C2=C(CCCC2=O)N1 (centres unmarked) [ST015076, 2-phenylethyl 2-methyl-4-(4-methylphenyl)-5-oxo-1,4,6,7,8-pentahydroquinoline-3-carboxylate] | 58.9 | 98.6 | 
COc1ccc(COC(=O)C2=C(C)NC3=C(C(=O)CCC3)C2c2ccc(C(F)(F)F)cc2)cc1 (centres unmarked) [ST052362, (4-methoxyphenyl)methyl 2-methyl-5-oxo-4-[4-(trifluoromethyl)phenyl]-1,4,6,7,8-pentahydroquinoline-3-carboxylate] | 7.11 | 0 | 
CCOCCOC(=O)C1=C(C)NC2=C(C(=O)CCC2)C1c1ccc(OC)c(OC)c1 (centres unmarked) [ST013341, 2-ethoxyethyl 4-(3,4-dimethoxyphenyl)-2-methyl-5-oxo-1,4,6,7,8-pentahydroquinoline-3-carboxylate] | 73 | 73.9 | 
CCc1ccc(C2C(C(=O)OC(C)C)=C(C)NC3=C2C(=O)CCC3)cc1 (centres unmarked) [ST013191, methylethyl 4-(4-ethylphenyl)-2-methyl-5-oxo-1,4,6,7,8-pentahydroquinoline-3-carboxylate] | 33.4 | 98 | 
CCc1cccc(NC(=O)CSC2=C(C#N)C(c3cc4ccccc4s3)C(C(=O)Nc3ccccc3)=C(C)N2)c1 (centres unmarked) [RI_87] |  |  | Aβ1-40 (% of control) (Aβ1-40): 77.1 % of control; Aβ1-42 (% of control) (Aβ1-42): 49 % of control
CC1(C)CC(=O)C2=C(C1)N(c1cc(C(F)(F)F)ccc1Cl)C(N)=C(C#N)C2c1ccc(Br)s1 (centres unmarked) [ST046868, 2-amino-4-(5-bromo(2-thienyl))-1-[2-chloro-5-(trifluoromethyl)phenyl]-7,7-dimethyl-5-oxo-1,4,6,7,8-pentahydroquinoline-3-carbonitrile] | 29.8 | 84 | 
CCOC(=O)C1=C(C)NC2=C(C(=O)CC(c3ccc(OC)cc3)C2)C1c1ccc(OCc2ccccc2)cc1 (centres unmarked) [ST017078, ethyl 7-(4-methoxyphenyl)-2-methyl-5-oxo-4-[4-(phenylmethoxy)phenyl]-1,4,6,7,8-pentahydroquinoline-3-carboxylate] | 51.8 | 49.4 | 
CCc1ccc(C2C(C(=O)OC3CCCCC3)=C(C)NC3=C2C(=O)CCC3)cc1 (centres unmarked) [ST013320, cyclohexyl 4-(4-ethylphenyl)-2-methyl-5-oxo-1,4,6,7,8-pentahydroquinoline-3-carboxylate] | 60.2 | 71.8 | 
CCC(C)OC(=O)C1=C(C)NC2=C(C(=O)CC(c3ccc(Cl)cc3)C2)C1c1cc(OC)c(OC)c(OC)c1 (centres unmarked) [ST017091, methylpropyl 7-(4-chlorophenyl)-2-methyl-5-oxo-4-(3,4,5-trimethoxyphenyl)-1,4,6,7,8-pentahydroquinoline-3-carboxylate] | 65.7 | 91 | 
N#CC1=C(N)N(c2c(F)cccc2F)C2=C(C(=O)CCC2)C1c1ccsc1 (centres unmarked) [ST051960, 2-amino-1-(2,6-difluorophenyl)-5-oxo-4-(3-thienyl)-1,4,6,7,8-pentahydroquinoline-3-carbonitrile] | 48.8 | 86.3 | 
COC(=O)C1=C(C)NC2=C(C(=O)CCC2)C1c1cccc(OC)c1 (centres unmarked) [ST013153, methyl 4-(3-methoxyphenyl)-2-methyl-5-oxo-1,4,6,7,8-pentahydroquinoline-3-carboxylate] | 91.4 | 66.3 | 
CC1=C(C(=O)OC2CCCCC2)C(c2ccc(Cl)c(Cl)c2)C2=C(CCCC2=O)N1 (centres unmarked) [ST013269, cyclohexyl 4-(3,4-dichlorophenyl)-2-methyl-5-oxo-1,4,6,7,8-pentahydroquinoline-3-carboxylate] | 12.3 | 1.35 | 
CC1=C(C(=O)Nc2ccccc2)C(c2ccsc2)C(C#N)=C(SCC(=O)Nc2cccc(Cl)c2)N1 (centres unmarked) [RI_70] |  |  | Aβ1-40 (% of control) (Aβ1-40): 74.1 % of control; Aβ1-42 (% of control) (Aβ1-42): 58.2 % of control
COc1ccc(C2C(C(=O)OCCOc3ccccc3)=C(C)NC3=C2C(=O)CC(C)(C)C3)cc1O (centres unmarked) [ST052422, 2-phenoxyethyl 4-(3-hydroxy-4-methoxyphenyl)-2,7,7-trimethyl-5-oxo-1,4,6,7,8-pentahydroquinoline-3-carboxylate] | 38.3 | 44.8 | 
